Measurements taken from ChEMBL document CHEMBL1151988, “Antineoplastic agents. 571. Total synthesis of bacillistatin 2” (2009).
In brackets after ≈: the same amount, converted by molar mass.

Legend:
P388 = assay: Cytotoxicity against mouse P388 cells; format: functional; conditions: read-out: ED50 (the source's name)
DU-145 = assay: Cytotoxicity against human DU145 cells; format: functional

| SMILES | EC50 (P388) [µg/mL] | GI50 (DU-145) [µg/mL] |
| --- | --- | --- |
| CC[C@H](C)[C@@H](OC(=O)[C@@H](NC(=O)[C@H](C)OCc1ccccc1)C(C)C)C(=O)N[C@@H](C(=O)O[C@@H](C)C(=O)N[C@H](C(=O)O[C@@H](C(=O)N[C@@H](C(=O)O[C@@H](C)C(=O)N[C@H](C(=O)O[C@H](CC(C)C)C(=O)N[C@@H](C(=O)OC(C)(C)C)C(C)C)C(C)C)C(C)C)[C@@H](C)CC)C(C)C)C(C)C | 2.1 (≈ 1.59 µM) | – |
| CC[C@H](C)[C@@H](OC(=O)[C@@H](NC(=O)[C@H](C)OC(=O)[C@H](NC(=O)[C@H](OC(=O)[C@@H](NC(=O)[C@@H](C)OCc1ccccc1)C(C)C)[C@@H](C)CC)C(C)C)C(C)C)C(=O)N[C@@H](C(=O)OC(C)(C)C)C(C)C | – | 10.5 (≈ 11.3 µM) |
| CC[C@H](C)[C@@H](OC(=O)[C@@H](NC(=O)[C@H](C)O)C(C)C)C(=O)N[C@@H](C(=O)O[C@@H](C)C(=O)N[C@H](C(=O)O[C@@H](C(=O)N[C@@H](C(=O)O[C@@H](C)C(=O)N[C@H](C(=O)O[C@H](CC(C)C)C(=O)N[C@@H](C(=O)OC(C)(C)C)C(C)C)C(C)C)C(C)C)[C@@H](C)CC)C(C)C)C(C)C | 2 (≈ 1.63 µM) | – |
